Results published in PubChem BioAssay AID330 (DTP/NCI, 2004).
“And” between values parts separate entries of the source, which are not always exact repeats. Equal values may be shown once. Toxic doses and inconclusive results are not listed.

Test system: P388 leukemia ip, CD2F1 mice, survival T/C
Test: NCI In Vivo Anticancer Drug Screen. Data for tumor model P388 Leukemia (intraperitoneal) in CD2F1 (CDF1) mice
Settings: endpoint: median survival time, higher = longer survival
Summary of the method: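 Mice carrying the transplanted tumor received test compound or vehicle. Survival was recorded in each group, and the value is the treated-group measurement divided by that of the vehicle-treated control group.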

[1] = dose: 50.0 mg/kg/injection, schedule: Q01DX009 (ip), vehicle: Klucel (hydroxypropylcellulose) (HPC)
[2] = dose: 100.0 mg/kg/injection, schedule: Q01DX009 (ip), vehicle: Klucel (hydroxypropylcellulose) (HPC)

In the case of COc1ccc(CCNCC(O)c2ccc(C)s2)cc1OC (stereo not given), the T/C (dose: 12.5 mg/kg/injection, schedule: Q01DX009 (ip), vehicle: saline) is reported as 100 % of control, the T/C (dose: 25.0 mg/kg/injection, schedule: Q01DX009 (ip), vehicle: saline) is reported as 86 % of control and the T/C (dose: 50.0 mg/kg/injection, schedule: Q01DX009 (ip), vehicle: saline) is reported as 101 % of control and 86 % of control. The T/C (dose: 100.0 mg/kg/injection, schedule: Q01DX009 (ip), vehicle: saline) was 98 % of control.

In the case of COc1cc(OC)c(N=Cc2ccc(C=Nc3cc(Cl)c(OC)cc3OC)cc2)cc1Cl, the T/C [1] is reported as 100 % of control, the T/C [2] is reported as 89 % of control and the T/C (dose: 200.0 mg/kg/injection, schedule: Q01DX009 (ip), vehicle: Klucel (hydroxypropylcellulose) (HPC)) is reported as 86 % of control.

Cn1c(SCC(=O)O)nnc1C1CCC(=O)N1Cc1ccccc1 (stereo not given) was tested, and the T/C (dose: 60.0 mg/kg/injection, schedule: Q01DX005 (ip), vehicle: saline with Tween-80) was 110 % of control, the T/C (dose: 120.0 mg/kg/injection, schedule: Q01DX005 (ip), vehicle: saline with Tween-80) was 103 % of control and the T/C (dose: 240.0 mg/kg/injection, schedule: Q01DX005 (ip), vehicle: saline with Tween-80) was 98 % of control.

With CN[C@H]1CCc2cc(OC)c(OC)c(OC)c2-c2ccc(OC)c(=O)cc21 the T/C (dose: 0.5 mg/kg/injection, schedule: Q01DX009 (ip), vehicle: saline) was 109 % of control, the T/C (dose: 0.5 mg/kg/injection, schedule: Q01DX009 (ip), vehicle: water) was 109 % of control and the T/C (dose: 0.63 mg/kg/injection, schedule: Q01DX009 (ip), vehicle: water) was 112 % of control. For the same compound, the T/C (dose: 1.0 mg/kg/injection, schedule: Q01DX009 (ip), vehicle: saline with Tween-80) was 117 % of control, the T/C (dose: 1.0 mg/kg/injection, schedule: Q01DX009 (ip), vehicle: saline) was 104 % of control and 124 % of control and the T/C (dose: 2.0 mg/kg/injection, schedule: Q01DX009 (ip), vehicle: saline with Tween-80) was 98 % of control. For the same compound, the T/C (dose: 2.0 mg/kg/injection, schedule: Q01DX009 (ip), vehicle: saline) was 104 % of control and 121 % of control, the T/C (dose: 4.0 mg/kg/injection, schedule: Q01DX009 (ip), vehicle: saline with Tween-80) was 95 % of control and the T/C (dose: 4.0 mg/kg/injection, schedule: Q01DX009 (ip), vehicle: saline) was 104 % of control. The T/C (dose: 4.0 mg/kg/injection, schedule: Q04DX003 (ip), vehicle: saline with Tween-80) was 103 % of control, the T/C (dose: 5.0 mg/kg/injection, schedule: Q01DX009 (ip), vehicle: water) was 117 % of control and the T/C (dose: 8.0 mg/kg/injection, schedule: Q01DX009 (ip), vehicle: saline) was 121 % of control. For the same compound, the T/C (dose: 8.0 mg/kg/injection, schedule: Q01DX009 (ip), vehicle: water) was 152 % of control, the T/C (dose: 8.0 mg/kg/injection, schedule: Q04DX003 (ip), vehicle: saline with Tween-80) was 101 % of control and the T/C (dose: 10.0 mg/kg/injection, schedule: Q01DX009 (ip), vehicle: water) was 155 % of control. The T/C (dose: 16.0 mg/kg/injection, schedule: Q04DX003 (ip), vehicle: saline with Tween-80) was 102 % of control and the T/C (dose: 32.0 mg/kg/injection, schedule: Q04DX003 (ip), vehicle: saline with Tween-80) was 102 % of control.

In the case of NC(=O)Nc1ccc(Cl)cc1[N+](=O)[O-], the T/C (dose: 37.5 mg/kg/injection, schedule: Q01DX009 (ip), vehicle: Klucel (hydroxypropylcellulose) (HPC)) is reported as 99 % of control and the T/C (dose: 75.0 mg/kg/injection, schedule: Q01DX009 (ip), vehicle: Klucel (hydroxypropylcellulose) (HPC)) is reported as 98 % of control.

Cc1cc(C=C2C(=O)OC(C)(C)OC2=O)cc(C)c1O was tested, and the T/C (dose: 50.0 mg/kg/injection, schedule: Q01DX005 (ip), vehicle: Klucel (hydroxypropylcellulose) (HPC)) was 93 % of control, the T/C (dose: 100.0 mg/kg/injection, schedule: Q01DX005 (ip), vehicle: Klucel (hydroxypropylcellulose) (HPC)) was 90 % of control and the T/C (dose: 200.0 mg/kg/injection, schedule: Q01DX005 (ip), vehicle: Klucel (hydroxypropylcellulose) (HPC)) was 103 % of control.

In the case of CC(C)C(Br)C(N)=O (stereo not given), the T/C (dose: 100.0 mg/kg/injection, schedule: Q04DX002 (ip), vehicle: Klucel (hydroxypropylcellulose) (HPC)) is reported as 100 % of control, the T/C (dose: 200.0 mg/kg/injection, schedule: Q04DX002 (ip), vehicle: Klucel (hydroxypropylcellulose) (HPC)) is reported as 103 % of control and the T/C (dose: 400.0 mg/kg/injection, schedule: Q04DX002 (ip), vehicle: Klucel (hydroxypropylcellulose) (HPC)) is reported as 105 % of control.

For COC1OC(C)C(=O)C2OC12 (stereo not given), the T/C [1] was 112 % of control and the T/C [2] was 116 % of control.

For CNC(=O)OCc1c(COC(=O)NC)c(-c2ccc(Cl)cc2)n2c1CCC2, the T/C (dose: 6.25 mg/kg/injection, schedule: Q01DX009 (ip), vehicle: Klucel (hydroxypropylcellulose) (HPC)) was 150 % of control, the T/C (dose: 12.5 mg/kg/injection, schedule: Q01DX009 (ip), vehicle: Klucel (hydroxypropylcellulose) (HPC)) was 94 % of control and the T/C (dose: 25.0 mg/kg/injection, schedule: Q01DX009 (ip), vehicle: Klucel (hydroxypropylcellulose) (HPC)) was 88 % of control. The T/C [1] was 104 % of control.

In the case of O=C1c2ccccc2C(=O)N1CC[P+](c1ccc(Cl)cc1)(c1ccc(Cl)cc1)c1ccc(Cl)cc1, the T/C (dose: 25.0 mg/kg/injection, schedule: Q01DX009 (ip), vehicle: other) is reported as 95 % of control.

With O=C(Nc1ccc(Cl)c(Cl)c1)Sc1ccc(Cl)cc1 the T/C (dose: 50.0 mg/kg/injection, schedule: Q01DX005 (ip), vehicle: saline with Tween-80) was 113 % of control, the T/C (dose: 100.0 mg/kg/injection, schedule: Q01DX005 (ip), vehicle: saline with Tween-80) was 119 % of control and the T/C (dose: 200.0 mg/kg/injection, schedule: Q01DX005 (ip), vehicle: saline with Tween-80) was 112 % of control.
